Each compound was assayed against GST-tagged truncated human mutant G2019S LRRK2 (Homo sapiens (Human), UniProt Q5S007, G2019S) (assay: LRRK2 Km ATP LanthaScreen Assay). Settings: 134 μM ATP (Km ATP); fluorescein-labeled LRRKtide substrate; mean IC50 values.
Assay type: biochemical
Experimental: Unless otherwise noted, all LRRK2 IC50 data presented in tables refers to the LRRK2 Km ATP LanthaScreen™ Assay that is described in the Biological Assay section.
Biological Assay: LRRK2 Km ATP LanthaScreen™ Assay
The LRRK2 kinase activity reported herein as IC50 values was determined with LanthaScreen™ technology from Life Technologies Corporation (Carlsbad, Calif.) using GST-tagged truncated human mutant G2019S LRRK2 in the presence of the fluorescein-labeled peptide substrate LRRKtide, also from Life Technologies. The data presented for the Km ATP LanthaScreen™ Assay represents mean IC50 values based on several test results and may have reasonable deviations depending on the specific conditions and reagents used. Assays were performed in the presence of 134 μM ATP (Km ATP). Upon completion, the assay was stopped and phosphorylated substrate detected with a terbium (Tb)-labeled anti-pERM antibody (cat. no. PV4898). The compound dose response was prepared by diluting a 10 mM stock of compound to a maximum concentration of 9.99 μM in 100% dimethylsulfoxide followed by custom fold serial dilution in dimethylsulfoxide nine times. Twenty nanoliters of each dilution was spotted via a Labcyte Echo onto a 384-well black-sided plate (Corning 3575) followed by 15 μl of a 1.25 nM enzyme solution in 1× assay buffer (50 mM Tris pH 8.5, 10 mM MgCl2, 0.01% Brij-35, 1 mM EGTA, 2 mM dithiothreitol, 0.05 mM sodium orthovanadate) Following a 15-minute incubation at room temperature, the kinase reaction was started with the addition of 5 μl of 400 nM fluorescein-labeled LRRKtide peptide substrate and 134 μM ATP solution in 1× assay buffer. The reaction was allowed to progress at ambient temperature for 90 minutes. The reaction was then stopped by the addition of 20 μl of TR-FRET Dilution Buffer (Life Technologies, Carlsbad, Calif.) containing 2 nM Tb-labeled anti-phospho LRRKtide antibody and 10 mM EDTA (Life Technologies, Carlsbad, Calif.). After an incubation of 1 hour at room temperature, the plate was read on an EnVision multimode plate reader (Perkin Elmer, Waltham, Mass.) with an excitation wavelength of 337 nm (Laser) and a reading emission at both 520 and 495 nm. Compound IC50s were interpolated from nonlinear regression best fits of the log of the final compound concentration, plotted as a function of the 520/495-nm emission ratio using Activity base. Abase uses a 4 parameter (4P) logistic fit based on the Levenberg-Marquardt algorithm.

Chain of GST-tagged truncated human mutant G2019S LRRK2 (Q5S007 970-2527 G2019S): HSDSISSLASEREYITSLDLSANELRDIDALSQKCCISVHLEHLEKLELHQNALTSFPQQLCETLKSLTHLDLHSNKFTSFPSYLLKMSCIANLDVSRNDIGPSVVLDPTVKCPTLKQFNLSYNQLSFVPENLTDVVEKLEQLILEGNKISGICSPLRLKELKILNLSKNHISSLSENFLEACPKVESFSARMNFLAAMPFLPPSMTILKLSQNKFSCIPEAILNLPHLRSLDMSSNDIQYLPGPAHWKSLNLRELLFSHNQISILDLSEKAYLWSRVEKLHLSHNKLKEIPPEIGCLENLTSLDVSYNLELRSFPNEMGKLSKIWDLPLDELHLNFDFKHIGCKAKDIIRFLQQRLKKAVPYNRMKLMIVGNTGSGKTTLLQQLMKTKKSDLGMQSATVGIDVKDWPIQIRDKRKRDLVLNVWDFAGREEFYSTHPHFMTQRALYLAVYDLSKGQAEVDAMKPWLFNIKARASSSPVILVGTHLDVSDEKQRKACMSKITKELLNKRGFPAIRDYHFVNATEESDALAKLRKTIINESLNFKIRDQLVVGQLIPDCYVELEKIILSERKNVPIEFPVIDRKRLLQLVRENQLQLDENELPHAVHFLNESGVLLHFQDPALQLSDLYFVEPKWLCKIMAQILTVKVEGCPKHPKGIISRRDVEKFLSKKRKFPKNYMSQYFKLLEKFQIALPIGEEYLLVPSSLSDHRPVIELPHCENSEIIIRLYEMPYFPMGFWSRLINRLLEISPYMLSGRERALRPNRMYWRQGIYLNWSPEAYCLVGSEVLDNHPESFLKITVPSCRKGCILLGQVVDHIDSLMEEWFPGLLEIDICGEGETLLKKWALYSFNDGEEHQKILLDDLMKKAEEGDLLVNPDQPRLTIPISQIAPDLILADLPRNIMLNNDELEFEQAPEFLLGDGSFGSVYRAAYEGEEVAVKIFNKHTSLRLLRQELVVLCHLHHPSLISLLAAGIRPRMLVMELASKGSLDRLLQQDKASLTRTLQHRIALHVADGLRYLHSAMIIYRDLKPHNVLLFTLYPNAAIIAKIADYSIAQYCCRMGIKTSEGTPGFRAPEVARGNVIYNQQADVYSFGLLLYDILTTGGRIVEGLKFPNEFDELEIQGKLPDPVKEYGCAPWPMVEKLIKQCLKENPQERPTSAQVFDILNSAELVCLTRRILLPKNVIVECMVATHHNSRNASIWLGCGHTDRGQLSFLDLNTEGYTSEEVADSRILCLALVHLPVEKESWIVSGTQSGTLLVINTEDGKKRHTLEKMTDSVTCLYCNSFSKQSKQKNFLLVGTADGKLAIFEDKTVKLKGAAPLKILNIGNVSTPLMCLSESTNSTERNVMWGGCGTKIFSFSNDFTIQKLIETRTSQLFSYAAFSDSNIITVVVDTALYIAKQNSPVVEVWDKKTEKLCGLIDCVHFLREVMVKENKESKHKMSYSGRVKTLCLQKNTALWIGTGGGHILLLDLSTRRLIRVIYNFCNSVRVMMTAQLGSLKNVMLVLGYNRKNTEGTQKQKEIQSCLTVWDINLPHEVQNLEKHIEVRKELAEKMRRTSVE

Going from `CC1(O)CN(c2cc(-n3ncc4ccc(C5(C#N)CC6(CC6)C5)cc43)ncn2)C1` [Example 25, 5-(1-(6-(3-hydroxy-3-methylazetidin-1-yl)pyrimidin-4-yl)-1H-indazol-6-yl)spiro[2.3]hexane-5-carbonitrile] to `CC1(O)CC2(CN(c3cc(-n4ncc5ccc(C6(C#N)CC7(CC7)C6)cc54)ncn3)C2)C1` (stereo not drawn) [Example 33, 5-(1-(6-(6-hydroxy-6-methyl-2-azaspiro[3.3]heptan-2-yl)pyrimidin-4-yl)-1H-indazol-6-yl)spiro[2.3]hexane-5-carbonitrile], the IC50 falls from 2.9 nM to 1 nM (2.9-fold). The second is the more potent here.

Going from `C[C@H]1CN(c2cc(-n3ncc4ccc(C5(C#N)CC6(CC6)C5)cc43)ncn2)CCO1` [Example 42, (S)-5-(1-(6-(2-methyl-morpholino)pyrimidin-4-yl)-1H-indazol-6-yl)spiro[2.3]hexane-5-carbonitrile] to `CC(C)(O)[C@@H]1CCN(c2cc(-n3ncc4ccc(C5(C#N)CC6(CC6)C5)cc43)ncn2)C1` [Example 11, (R)-5-(1-(6-(3-(2-hydroxypropan-2-yl)pyrrolidin-1-yl)pyrimidin-4-yl)-1H-indazol-6-yl)spiro[2.3]hexane-5-carbonitrile], the IC50 falls from 5.6 nM to 0.9 nM (6.2-fold). The second is the more potent here.

First: CC1C2(CC2)CC1(C#N)c1ccc2cnn(-c3cc(N4CCN5CCOC[C@@H]5C4)ncn3)c2c1 (single isomer, unassigned) [Example 56]
Second: CC1CC12CC(C#N)(c1ccc3cnn(-c4cc(N5CCN6CCOC[C@@H]6C5)ncn4)c3c1)C2 (single isomer, unassigned) [Example 51]
The IC50 of the first is 3.3-fold lower: 3 nM for the first, 9.8 nM for the second.

First: CC(C)(O)[C@@H]1CCN(c2cc(-n3ncc4cnc(C5(C#N)CC6(CC6)C5)cc43)ncn2)C1 [Example 19, (R)-5-(1-(6-(3-(2-hydroxypropan-2-yl)pyrrolidin-1-yl)pyrimidin-4-yl)-1H-pyrazolo[4,3-c]pyridin-6-yl)spiro[2.3]hexane-5-carbonitrile]
Second: CC(C)(O)C12CC(C1)N(c1cc(-n3ncc4cnc(C5(C#N)CC6(CC6)C5)cc43)ncn1)C2 [Example 18, 5-(1-(6-(4-(2-hydroxypropan-2-yl)-2-azabicyclo[2.1.1]hexan-2-yl)pyrimidin-4-yl)-1H-pyrazolo[4,3-c]pyridin-6-yl)spiro[2.3]hexane-5-carbonitrile]
The IC50 of the first is 1.8-fold lower: 10.7 nM for the first, 19.2 nM for the second. The first is the more potent here.

Going from `Cc1nc(N2CC[C@H](O)[C@H](F)C2)cc(-n2ncc3ccc(C4(C#N)CC5(CC5)C4)cc32)n1` [Example 3, 5-(1-(6-((3R,4S)-3-fluoro-4-hydroxypiperidin-1-yl)-2-methylpyrimidin-4-yl)-1H-indazol-6-yl)spiro[2.3]hexane-5-carbonitrile] to `N#CC1(c2ccc3cnn(-c4cc(N5CC[C@H](O)[C@@H](F)C5)ncn4)c3c2)CC2(CC2)C1` [Example 6, 5-(1-(6-((3S,4S)-3-fluoro-4-hydroxypiperidin-1-yl)pyrimidin-4-yl)-1H-indazol-6-yl)spiro[2.3]hexane-5-carbonitrile], the IC50 falls from 18 nM to 6.2 nM (2.9-fold).

First: CN1CCOC2(C1)CN(c1cc(-n3ncc4ccc(C5(C#N)CC6(CC6)C5)cc43)ncn1)C2 [Example 28, 5-(1-(6-(8-methyl-5-oxa-2,8-diazaspiro[3.5]nonan-2-yl)pyrimidin-4-yl)-1H-indazol-6-yl)spiro[2.3]hexane-5-carbonitrile]
Second: CN1CCN(c2cc(-n3ncc4ccc(C5(C#N)CC6(CC6)C5)cc43)ncn2)CC1CO (single isomer, unassigned) [Example 15, 5-(1-(6-(3-(hydroxymethyl)-4-methylpiperazin-1-yl)pyrimidin-4-yl)-1H-indazol-6-yl)spiro[2.3]hexane-5-carbonitrile]
The IC50 of the first is 2.9-fold lower: 1.3 nM for the first, 3.8 nM for the second.

Compared with `N#CC1(c2ccc3cnn(-c4cc(N5CC6(CO)CC5C6)ncn4)c3c2)CC2(CC2)C1` [Example 7, 5-(1-(6-(4-(hydroxymethyl)-2-azabicyclo[2.1.1]hexan-2-yl)pyrimidin-4-yl)-1H-indazol-6-yl)spiro[2.3]hexane-5-carbonitrile], `N#CC1(c2ccc3cnn(-c4ccnc(N5CC6(CO)CC5C6)c4)c3c2)CC2(CC2)C1` [Example 32, 5-(1-(2-(4-(hydroxymethyl)-2-azabicyclo[2.1.1]hexan-2-yl)pyridin-4-yl)-1H-indazol-6-yl)spiro[2.3]hexane-5-carbonitrile] is 6.7-fold higher in IC50: 1.5 nM for the first, 10 nM for the second.

`CC(C)(O)C1CN(c2cc(-n3ncc4ccc(C5(C#N)CC6(CC6)C5)cc43)ncn2)CC1F` (single isomer, unassigned) [Example 23, 5-(1-(6-(3-fluoro-4-(2-hydroxypropan-2-yl)pyrrolidin-1-yl)pyrimidin-4-yl)-1H-indazol-6-yl)spiro[2.3]hexane-5-carbonitrile] and `CC1C(C(C)(C)O)CCN1c1cc(-n2ncc3ccc(C4(C#N)CC5(CC5)C4)cc32)ncn1` (single isomer, unassigned) [Example 36, 5-(1-(6-(3-(2-hydroxypropan-2-yl)-2-methylpyrrolidin-1-yl)pyrimidin-4-yl)-1H-indazol-6-yl)spiro[2.3]hexane-5-carbonitrile] are within 1.5-fold of each other in IC50: 4.6 nM for the first, 3.2 nM for the second.

Compared with `N#CC1(c2cc3c(cn2)cnn3-c2cc(N3CCN4CCOC[C@@H]4C3)ncn2)CC2(CC2)C1` [Example 49, (S)-5-(1-(6-(hexahydropyrazino[2,1-c][1,4]oxazin-8(1H)-yl)pyrimidin-4-yl)-1H-pyrazolo[4,3-c]pyridin-6-yl)spiro[2.3]hexane-5-carbonitrile], `CC1C2(CC2)CC1(C#N)c1ccc2cnn(-c3cc(N4CCN5CCOC[C@@H]5C4)ncn3)c2c1` (single isomer, unassigned) [Example 54] is 5.2-fold lower in IC50: 8.8 nM for the first, 1.7 nM for the second.

`CNc1nc(N2CC3(C(C)(C)O)CC2C3)cc(-n2ncc3ccc(C4(C#N)CC5(CC5)C4)cc32)n1` [Example 29, 5-(1-(6-(4-(2-hydroxypropan-2-yl)-2-azabicyclo[2.1.1]hexan-2-yl)-2-(methylamino)pyrimidin-4-yl)-1H-indazol-6-yl)spiro[2.3]hexane-5-carbonitrile] and `Cc1nc(N2CC3(C(C)(C)O)CC2C3)cc(-n2ncc3ccc(C4(C#N)CC5(CC5)C4)cc32)n1` [Example 5, 5-(1-(6-(4-(2-hydroxypropan-2-yl)-2-azabicyclo[2.1.1]hexan-2-yl)-2-methylpyrimidin-4-yl)-1H-indazol-6-yl)spiro[2.3]hexane-5-carbonitrile] are within 1.5-fold of each other in IC50: 16.7 nM for the first, 12.3 nM for the second.

First: COc1nc(N2CC3(C(C)(C)O)CC2C3)cc(-n2ncc3ccc(C4(C#N)CC5(CC5)C4)cc32)n1 [Example 30, 5-(1-(6-(4-(2-hydroxypropan-2-yl)-2-azabicyclo[2.1.1]hexan-2-yl)-2-methoxypyrimidin-4-yl)-1H-indazol-6-yl)spiro[2.3]hexane-5-carbonitrile]
Second: Cc1nc(N2CC[C@@H](C(C)(C)O)C2)cc(-n2ncc3ccc(C4(C#N)CC5(CC5)C4)cc32)n1 [Example 10, (R)-5-(1-(6-(3-(2-hydroxypropan-2-yl)pyrrolidin-1-yl)-2-methylpyrimidin-4-yl)-1H-indazol-6-yl)spiro[2.3]hexane-5-carbonitrile]
The IC50 of the first is 3.2-fold higher: 12.3 nM for the first, 3.8 nM for the second. The second is the more potent here.

First: COCc1nc(N2CCN(C3COC3)[C@@H](C)C2)cc(-n2ncc3ccc(C4(C#N)CC5(CC5)C4)cc32)n1 [Example 21, (S)-5-(1-(2-(methoxymethyl)-6-(3-methyl-4-(oxetan-3-yl)piperazin-1-yl)pyrimidin-4-yl)-1H-indazol-6-yl)spiro[2.3]hexane-5-carbonitrile]
Second: C[C@H]1CN(c2cc(-n3ncc4ccc(C5(C#N)CC6(CC6)C5)cc43)ncn2)CCN1C1CCOC1 (single isomer, unassigned) [Example 34]
The IC50 of the first is 12-fold higher: 10.9 nM for the first, 0.9 nM for the second. The second is the more potent here.

Compared with `CC1C2(CC2)CC1(C#N)c1ccc2cnn(-c3cc(N4CCN5CCOC[C@@H]5C4)ncn3)c2c1` (single isomer, unassigned) [Example 53], `N#CC1(c2ccc3cnn(-c4cc(N5CC[C@@H](O)[C@@H](F)C5)ncn4)c3c2)CC2(CC2)C1` [Example 1, 5-(1-(6-((3S,4R)-3-fluoro-4-hydroxypiperidin-1-yl)pyrimidin-4-yl)-1H-indazol-6-yl)spiro[2.3]hexane-5-carbonitrile] is 1.8-fold lower in IC50: 7.9 nM for the first, 4.4 nM for the second.

`CC1C(C(C)(C)O)CCN1c1cc(-n2ncc3ccc(C4(C#N)CC5(CC5)C4)cc32)ncn1` (single isomer, unassigned) [Example 37, 5-(1-(6-(3-(2-hydroxypropan-2-yl)-2-methylpyrrolidin-1-yl)pyrimidin-4-yl)-1H-indazol-6-yl)spiro[2.3]hexane-5-carbonitrile] gave an IC50 of 138 nM.

Reference: US11174248B2, “Indazolyl-spiro[2.3]hexane-carbonitrile derivatives as LRRK2 inhibitors, pharmaceutical compositions, and uses thereof” (Merck Sharp & Dohme Corp., priority 2017, dated 2021)
